Efflux ratio and Papp A→B data for one compound are collected here from patent publication US20260317314A1, “NITROGEN-CONTAINING HETEROCYCLIC COMPOUND AND USE THEREOF” (JIANGSU DEYUAN PHARMACEUTICAL CO.,LTD., priority 2023, published 2026).

As usually defined, the efflux ratio is the permeability from basolateral to apical divided by that in the opposite direction, in the common usage.

This series is described as follows: Permeability test in MDR1-MDCKII monolayer cell model. The class given is in vitro ADME. The conditions noted are these: dog. An outline of the steps: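 Bidirectional transport of 2 μM compound across 4–7-day MDR1-MDCKII monolayers in HBSS with 10 mM HEPES pH 7.40, DMSO below 1%, 2.5 h at 37 °C. Quantified by LC-MS/MS. Papp calculated from receiver accumulation; efflux ratio = Papp(B-A)/Papp(A-B).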

For the compound `CCC(=O)N[C@H]1CCOc2c(-c3ccc4c(c3)CCC(=O)N4C)cncc21` (single isomer, unassigned) [Compound 037], the efflux ratio at 2.5 h, 2 µM (MDCK-MDR1, pH 7.4, ER=Papp(BA)/Papp(AB)) is 1.88. Moreover, the Papp A→B at 2.5 h, 2 µM (MDCK-MDR1, pH 7.4, pH 7.40, 2.5 hours, 37±1° C., read-out: Apparent permeability coefficient (Papp (AB))) worked out at 10.7 ×10⁻⁶ cm/s.
